The target of test [1] is T1, human SGLT2 (Homo sapiens, UniProt P31639).
T1 construct: expressed in transfected cells; pcDNA vector)
T1 sequence (P31639 1-672): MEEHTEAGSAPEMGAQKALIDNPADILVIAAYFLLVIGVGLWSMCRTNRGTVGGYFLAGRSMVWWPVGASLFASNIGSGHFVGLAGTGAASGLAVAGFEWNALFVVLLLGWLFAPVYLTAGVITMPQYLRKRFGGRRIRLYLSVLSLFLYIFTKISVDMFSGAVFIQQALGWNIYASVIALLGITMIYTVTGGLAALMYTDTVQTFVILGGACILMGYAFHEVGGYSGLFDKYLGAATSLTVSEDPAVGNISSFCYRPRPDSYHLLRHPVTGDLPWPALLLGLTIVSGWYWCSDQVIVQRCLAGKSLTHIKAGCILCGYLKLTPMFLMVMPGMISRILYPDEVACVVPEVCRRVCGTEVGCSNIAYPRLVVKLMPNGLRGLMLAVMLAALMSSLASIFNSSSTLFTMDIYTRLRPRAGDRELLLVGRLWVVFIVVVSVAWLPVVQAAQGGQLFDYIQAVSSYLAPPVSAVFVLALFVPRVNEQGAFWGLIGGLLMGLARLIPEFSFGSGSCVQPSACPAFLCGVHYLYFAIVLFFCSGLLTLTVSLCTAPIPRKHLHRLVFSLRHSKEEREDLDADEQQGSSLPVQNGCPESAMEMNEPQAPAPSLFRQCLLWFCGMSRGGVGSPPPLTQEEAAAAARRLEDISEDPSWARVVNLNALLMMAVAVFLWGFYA
Nature of the test: Cell-based assay for sodium-dependent glucose transport (14C-AMG uptake), CHOK-SGLT2. The settings on record: CHO-K1 cells stably expressing human SGLT2, Na-dependent 14C-AMG uptake; for inhibition at 10 µM: read-out: CHOK-SGLT2 % Inh. @10 μM. The procedure:
(§1) Cloning of the human SGLT1 and human SGLT2 cDNAs and construction of the mammalian expression vector: The human SGLT1 cDNA (Genbank M24847) was cloned from human small intestine. Human SGLT2 cDNA (Genbank M95549) was cloned from human kidney. Both full cDNAs were subcloned into pcDNA and sequenced to verify the integrity of the construct.
(§2) Generation of CHO-K1 cells stably expressing human SGLT1 or human SGLT2: Transfection of CHO-K1 cells was performed using DMRIE-C reagent (Life Technologies, Gaithersburg, Md.). Transfectants were then selected in the presence of the antibiotic G418 (Gibco-BRL, Grand Island, N.Y.) at 400 μg/ml. Individual clones were then characterized using the functional assay described below.
(§3) Cell-based assay for sodium-dependent glucose transport: Cell lines stably expressing human SGLT1 or SGLT2 were then used for functional analysis of Na+-dependent glucose uptake. Briefly, cells were plated at a density of 65,000 cells per well in a 96-well plate and allowed to grow for 48 hours. Cells were subsequently washed one time with Assay Buffer (50 mM HEPES pH 7.4, 20 mM Tris, 5 mM KCl, 1 mM MgCl2, 1 mM CaCl2 and 137 mM NaCl) and treated with compound in the absence or presence of NaCl for 15 minutes. Cells were then labeled with ^14C-α-methylglucopyranoside (AMG, Sigma, St. Louis, Mo.), a non-metabolizable glucose analog specific for sodium-dependent glucose transporters as previously described (Peng, H. and Lever J. E. Post-transcriptional regulation of Na^+/glucose cotransporter (SGLT1) gene expression in LLC-PK1 cells. J Biol Chem 1995; 270:20536-20542.). After 2 hours the labelled cells were washed three times with ice-cold PBS. After aspiration, cells were solubilized using Microscint 20 (Packard, Meriden, Conn.) and Na-dependent ^14C-AMG uptake was quantified by measuring radioactivity. Plates were counted in a TopCount (Packard, Meriden, Conn.). Results are reported as the % inhibition or IC50 value from a representative experiment. Variability for the functional assay was typically within 20%.

In test [2] the target is T2, human SGLT1 (Homo sapiens, UniProt P13866).
T2 construct: expressed in transfected cells; pcDNA vector)
T2 sequence (P13866 1-664): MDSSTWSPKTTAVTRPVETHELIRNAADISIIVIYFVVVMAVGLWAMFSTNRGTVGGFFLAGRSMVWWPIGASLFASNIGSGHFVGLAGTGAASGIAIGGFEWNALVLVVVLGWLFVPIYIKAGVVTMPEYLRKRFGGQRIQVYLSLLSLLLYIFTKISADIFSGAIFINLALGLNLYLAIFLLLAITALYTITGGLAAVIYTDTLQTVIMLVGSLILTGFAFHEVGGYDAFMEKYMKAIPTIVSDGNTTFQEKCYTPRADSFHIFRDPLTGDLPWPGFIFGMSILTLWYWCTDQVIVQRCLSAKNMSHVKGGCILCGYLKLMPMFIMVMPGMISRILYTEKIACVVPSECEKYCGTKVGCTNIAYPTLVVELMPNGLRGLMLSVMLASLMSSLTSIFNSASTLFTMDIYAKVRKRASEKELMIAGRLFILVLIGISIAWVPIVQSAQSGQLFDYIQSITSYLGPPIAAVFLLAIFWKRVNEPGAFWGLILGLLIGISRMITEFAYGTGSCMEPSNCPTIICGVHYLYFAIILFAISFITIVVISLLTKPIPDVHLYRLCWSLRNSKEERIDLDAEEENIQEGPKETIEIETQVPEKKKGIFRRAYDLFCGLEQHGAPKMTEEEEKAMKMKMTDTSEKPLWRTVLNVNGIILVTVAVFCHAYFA
Nature of the test: Cell-based assay for sodium-dependent glucose transport (14C-AMG uptake), CHOK-SGLT1. The settings on record: CHO-K1 cells stably expressing human SGLT1, Na-dependent 14C-AMG uptake; for inhibition at 10 µM: read-out: CHOK-SGLT1 % Inh. @10 μM. On the procedure:
as §1, §2, §3

Structures are written as SMILES. pIC50: −log10 of the molar value.

For `O=c1[nH]c2cccc(OC3OC(CO)C(O)C(O)C3O)c2n1CCc1ccc2ccccc2c1` [Example 1, 2-[3-(2-Naphthalen-2-yl-ethyl)-1,3-dihydro-benzoimidazol-2-one-4-yloxy]-β-D-glucopyranoside], the inhibition at 10 µM in test [1] turned out to be 31%.
In the case of `OCC1OC(Oc2cccc3ncn(CCc4ccc5ccccc5c4)c23)C(O)C(O)C1O` [Example 2, 2-[3-(2-naphthalen-2-yl-ethyl)-3H-benzoimidazol-4-yloxy]-β-D-glucopyranoside], the inhibition at 10 µM in test [2] came out at 55%. For the same molecule, the pIC50 in test [1] was 6.48.
Regarding `CCc1ccc(Cn2c(=O)[nH]c3cccc(OC4OC(CO)C(O)C(O)C4O)c32)cc1` [Example 3, 2[3-(4-Ethyl-benzyl)-1,3-dihydro-benzoimidazol-2-one-4-yloxy]-β-D-glucopyranoside], in test [2], the inhibition at 10 µM is 1%. Also, in test [1], the pIC50 is 5.99.
As to `CCc1ccc(Cn2cnc3cccc(OC4OC(CO)C(O)C(O)C4O)c32)cc1` [Example 4, 2-[3-(4-Ethyl-benzyl)-3H-benzoimidazol-4-yloxy]-β-D-glucopyranoside], the figures for the pIC50 in test [2] and in test [1] were 5.95 and 7.80, respectively.
As for `COc1ccc(CCn2cnc3cccc(OC4OC(CO)C(O)C(O)C4O)c32)cc1` [Example 5, 2-{3-[2-(4-Methoxyphenyl)-ethyl]-3H-benzoimidazol-4-yloxy}-β-D-glucopyranoside], the inhibition at 10 µM in test [2] was determined as 61%. Further, in test [1], the pIC50 was 6.44.
For `COc1ccc(CCn2c(=O)[nH]c3cccc(OC4OC(CO)C(O)C(O)C4O)c32)cc1` (stereo not drawn) [Example 6], in test [1], the inhibition at 10 µM is 18%.
For `OCC1OC(Oc2cccc3ncn(CCc4ccc5c(c4)CCO5)c23)C(O)C(O)C1O` (stereo not drawn) [Example 7, 2-{3-[2-(2,3-Dihydro-benzofuran-5-yl)-ethyl]-3H-benzoimidazol-4-yloxy}β-D glucopyranoside], the pIC50 in test [2] was 6.15; in test [1], 7.42.
For `CCc1ccc(Cn2cnc3cc(C)cc(O[C@@H]4O[C@H](CO)[C@@H](O)[C@H](O)[C@H]4O)c32)cc1` [Example 8, 2-[3-(4-Ethyl-benzyl)-6-methyl-3H-benzoimidazol-4-yloxy]-β-D-glucopyranoside], in that order: 5.95 and 7.21.
`COc1ccc(CCn2nnc3cccc(OC4OC(CO)C(O)C(O)C4O)c32)cc1` [Example 9, 2-{3-[2-(4-methoxy-phenyl)-ethyl]-3H-benzotriazol-4-yloxy}-β-D-glucopyranoside]: the inhibition at 10 µM in test [2] turned out to be 40%. In test [1], the pIC50 is 6.41.
As to `CCc1ccc(Cn2nnc3cccc(OC4OC(CO)C(O)C(O)C4O)c32)cc1` [Example 10, 2-[3-(4-Ethyl-benzyl)-3H-benzotriazol-4-yloxy]-β-D-glucopyranoside], the pIC50 in test [2] was 6.23; in test [1], 8.10.

For the origin of these results see patent US7816330B2, “Substituted benzimidazole-, benztriazole-, and benzimidazolone-O-glucosides” (Janssen Pharmaceutica NV, priority 2003, dated 2010).
